Read-outs that look alike come from different tables or passages of the source.
Tests used:
[1] = Encapsulation efficiency of loaded LNPs, RiboGreen RNA assay (Method A); type: physicochemical
Description: (§1) The synthesized lipids were tested in term of in vitro transfection efficacy and toxicity on HeLa cells. In order to perform the mentioned biological tests, appropriate LNPs had to be formulated from the synthesized lipids. The formulation technique was different in Method A and B. The particle size, polydispersity index (PDI) and zeta potential of resulting LNPs were determined by means of Dynamic Light Scattering technique (DLS). Prior to biological testing the encapsulation efficiency (EE) of the loaded LNPs was determined by using RiboGreen RNA assay. In case of Method A Luc mRNA while in case of Method B GFP mRNA was transfected into the cells. In parallel with the transfection experiments, toxicity of the investigated LNPs was determined, in case of Method A resazurin assay while in case of Method B MTT assay was used. Additionally, the toxicity of the lipids was investigated on HepG2 cells and IC50 values were determined.
• 1. Preparation of sample stock solutions: In the top row of the 96-well plate (Row A in the plate), add 297 μL of TE buffer pH 7.4 (see Table 1) to a single well for each sample plus a single well for a PBS blank using a multichannel pipette.
• 2. Add 3 μL of sample (at 0.5 mg/ml) to these wells for a final volume of 300 μL. Add 3 μL of PBS to the blank well. Pipette to mix. This is your stock solution for each sample. The final RNA concentration of these stock solutions should be approximately 4-7 μg/mL. • 3. mRNA-LNP sample setup: • a. Add 50 μL of TE buffer pH 7.5 to the two wells directly below each sample (Rows B and C in the plate). • b. Add 50 μL of sample stock solution from Row A into the wells in Rows B and C (this assay is run in duplicate. All liquid handling should be done using a multichannel pipette). • c. Add 50 μL of Triton buffer to the wells in Rows D and E (in the plate) below each sample. • d. Add 50 μL of sample stock solution from Row A into the wells in Rows D and E. • 4. RiboGreen RNA standard curve setup: Dilute the RNA standard to produce an RNA stock at a final concentration of 20 μg/mL in TE buffer pH 7.4. The final volume should be 150 μL. Set up a standard curve (in duplicate) as using the RNA stock (20 μg/mL siRNA), TE buffer pH 7.5, and Triton X-100 buffer according the Table 2 and Table 3 below.
• 5. Once samples and standard curve are plated, incubate the plate at 37° C. for 10 min to lyse mRNA-LNP in the presence of Triton X-100 buffer. • 6. Meanwhile, prepare RiboGreen Solution: Sum the total number of sample wells and standard curve wells. Add three to this number, and multiply the total by 100. This is the total volume, in μL, of RiboGreen Solution needed for this assay. In a 15 mL RNAse-free Falcon tube, dilute the RiboGreen Reagent 1:100 into TE buffer pH 7.5 to the total volume calculated. • 7. Addition of RiboGreen Solution and sample readings: Remove a 96-well plate from 37° C. incubator; let it cool to room temperature as RiboGreen binding is somewhat temperature dependent. Add 100 μL of RiboGreen Solution to each well. Pop any air bubbles with a needle. Read using fluorescent plate reader (excitation=480, emission=525). • 8. Sample analysis: Use the data generated by the RiboGreen standard curve to calculate the concentration of mRNA. Transfection Efficiency with Luciferase-mRNA (Method A)

HepG2 cell line = test: In vitro toxicity study on HepG2 cell line (resazurin, viability and IC50); type: cell-based, human; conditions: for IC50: lipid toxicity, HepG2, 48 h post-treatment, 6.25-800 μM, read-out: IC50 value, μM (on HepG2 cell)
Description: as §1
HepG2 cell line (human hepatocellular carcinoma) were maintained in DMEM medium supplemented with 10% FBS. Cell toxicity measurements were carried out in 384-well microtiter plates with 1000 cells seeded in each well. Test measurements were carried out in triplicate, and control measurements in quadruplicate. After an overnight incubation, the cells were treated with an increasing concentration of the test compounds (6.25, 12.5, 25, 50, 100, 200, 400, 800 μM). […] 48 h post-treatment, following visual inspection under an inverted microscope, cell viability was measured by resazurin assay. Viability of treated cells was calculated relative to that of ethanol vehicle controls. Concentration response curves (CRCs) were obtained and corresponding IC50 values were calculated where applicable and are shown in Table 9.
Resazurin reagent (Sigma-Aldrich) was dissolved in PBS (pH 7.4) at 0.15 mg/ml concentration, 0.22 μm filtered and aliquoted at −20° C., 10 μl resazurin stock solution was added to wells. After 5 hours incubation at 37° C. under 5% CO2 fluorescence (530 nm excitation/580 nm emission) was recorded on a multimode microplate reader.

[2] = encapsulation efficiency of mRNA-loaded LNP, Method A, RiboGreen
[3] = HepG2 cells, 6.25 μM lipid, 48 h post-treatment, resazurin, relative to ethanol vehicle controls
[4] = HepG2 cells, 12.5 μM lipid, 48 h post-treatment, resazurin, relative to ethanol vehicle controls
[5] = HepG2 cells, 25 μM lipid, 48 h post-treatment, resazurin, relative to ethanol vehicle controls
[6] = HepG2 cells, 50 μM lipid, 48 h post-treatment, resazurin, relative to ethanol vehicle controls
[7] = HepG2 cells, 100 μM lipid, 48 h post-treatment, resazurin, relative to ethanol vehicle controls
[8] = HepG2 cells, 200 μM lipid, 48 h post-treatment, resazurin, relative to ethanol vehicle controls
[9] = HepG2 cells, 400 μM lipid, 48 h post-treatment, resazurin, relative to ethanol vehicle controls
[10] = HepG2 cells, 800 μM lipid, 48 h post-treatment, resazurin, relative to ethanol vehicle controls

CCCCCCCCC(CCCCCC)C(=O)OCCCCCCN(CCCCO)CCCCCCOC(=O)C(CCCCCC)CCCCCCCC (stereo not shown) [ALC-0315, reference compound]
EE (%) [1, 2]: 94% | Viability (%) at different lipid concentrations, mean (HepG2 cell line; [3]): 76.8% | Viability (%) at different lipid concentrations, mean (HepG2 cell line; [4]): 97.4% | Viability (%) at different lipid concentrations, mean (HepG2 cell line; [5]): 95.4% | Viability (%) at different lipid concentrations, mean (HepG2 cell line; [6]): 91.6% | Viability (%) at different lipid concentrations, mean (HepG2 cell line; [7]): 84.2% | Viability (%) at different lipid concentrations, mean (HepG2 cell line; [8]): 58.9% | Viability (%) at different lipid concentrations, mean (HepG2 cell line; [9]): 42.9% | Viability (%) at different lipid concentrations, mean (HepG2 cell line; [10]): 20.9% | IC50 (HepG2 cell line; resazurin): 299 µM

CCCCC/C=C\C/C=C\CCCCCCCCOC(CCCCCN(CCO)CCO)O[Si](C)(C)OCCCCCCCC/C=C\C/C=C\CCCCC (stereo not shown) [Example 39, (21Z,24Z)-3-(2-hydroxyethyl)-11,11-dimethyl-9-(((9Z,12Z)-octadeca-9,12-dien-1-yl)oxy)-10,12-dioxa-3-aza-11-silatriaconta-21,24-dien-1-ol]
EE (%) [1, 2]: 87% | IC50 (HepG2 cell line; Homo sapiens, resazurin): 667 µM | Viability (%) at different lipid concentrations, mean (HepG2 cell line; human, 48 h, 6.25 μM): 99.8% | Viability (%) at different lipid concentrations, mean (HepG2 cell line; human, 48 h, 12.5 μM): 97.8% | Viability (%) at different lipid concentrations, mean (HepG2 cell line; human, 48 h, 25 μM): 99.4% | Viability (%) at different lipid concentrations, mean (HepG2 cell line; human, 48 h, 50 μM): 98.6% | Viability (%) at different lipid concentrations, mean (HepG2 cell line; human, 48 h, 100 μM): 100.3% | Viability (%) at different lipid concentrations, mean (HepG2 cell line; human, 48 h, 200 μM): 106.1% | Viability (%) at different lipid concentrations, mean (HepG2 cell line; human, 48 h, 400 μM): 83.4% | Viability (%) at different lipid concentrations, mean (HepG2 cell line; human, 48 h, 800 μM): 35.8%

CCCCC/C=C\C/C=C\CCCCCCCCO[Si](C)(C)OC(CCCCCCC/C=C\C/C=C\CCCCC)OCCCCCCN(CCO)CCO (stereo not shown) [Example 40, (23Z,26Z)-11-((8Z,11Z)-heptadeca-8,11-dien-1-yl)-3-(2-hydroxyethyl)-13,13-dimethyl-10,12,14-trioxa-3-aza-13-siladotriaconta-23,26-dien-1-ol]
EE (%) [1, 2]: 87% | Viability (%) at different lipid concentrations, mean (HepG2 cell line; [3]): 100.8% | Viability (%) at different lipid concentrations, mean (HepG2 cell line; [4]): 97.6% | Viability (%) at different lipid concentrations, mean (HepG2 cell line; [5]): 98.9% | Viability (%) at different lipid concentrations, mean (HepG2 cell line; [6]): 101.8% | Viability (%) at different lipid concentrations, mean (HepG2 cell line; [7]): 109.7% | Viability (%) at different lipid concentrations, mean (HepG2 cell line; [8]): 115.3% | Viability (%) at different lipid concentrations, mean (HepG2 cell line; [9]): 102.0% | Viability (%) at different lipid concentrations, mean (HepG2 cell line; [10]): 89.0% | IC50 (HepG2 cell line; Homo sapiens, resazurin): > 800 µM

CCCCCCCC/C=C\CCCCCCCCOC(CCCCCCCCCCCCCCC)O[Si](C)(C)OCCCCCCN(CCO)CCO (stereo not shown) [Example 41, (Z)-3-(2-hydroxyethyl)-11,11-dimethyl-13-pentadecyl-10,12,14-trioxa-3-aza-11-siladotriacont-23-en-1-ol]
EE (%) [1, 2]: 78% | Viability (%) at different lipid concentrations, mean (HepG2 cell line; [3]): 99.0% | Viability (%) at different lipid concentrations, mean (HepG2 cell line; [4]): 97.6% | Viability (%) at different lipid concentrations, mean (HepG2 cell line; [5]): 102.6% | Viability (%) at different lipid concentrations, mean (HepG2 cell line; [6]): 111.2% | Viability (%) at different lipid concentrations, mean (HepG2 cell line; [7]): 113.2% | Viability (%) at different lipid concentrations, mean (HepG2 cell line; [8]): 109.5% | Viability (%) at different lipid concentrations, mean (HepG2 cell line; [9]): 91.5% | Viability (%) at different lipid concentrations, mean (HepG2 cell line; [10]): 90.7% | IC50 (HepG2 cell line; Homo sapiens, resazurin): > 800 µM

CCCCCCCC/C=C\CCCCCCCC(OCCCCCCCCCCCCCCCC)O[Si](C)(C)OCCCCCCN(CCO)CCO (stereo not shown) [Example 42, (Z)-13-(heptadec-8-en-1-yl)-3-(2-hydroxyethyl)-11,11-dimethyl-10,12,14-trioxa-3-aza-11-silatriacontan-1-ol]
EE (%) [1, 2]: 87% | Viability (%) at different lipid concentrations, mean (HepG2 cell line; [3]): 105.1% | Viability (%) at different lipid concentrations, mean (HepG2 cell line; [4]): 100.0% | Viability (%) at different lipid concentrations, mean (HepG2 cell line; [5]): 98.9% | Viability (%) at different lipid concentrations, mean (HepG2 cell line; [6]): 102.2% | Viability (%) at different lipid concentrations, mean (HepG2 cell line; [7]): 107.6% | Viability (%) at different lipid concentrations, mean (HepG2 cell line; [8]): 117.1% | Viability (%) at different lipid concentrations, mean (HepG2 cell line; [9]): 104.2% | Viability (%) at different lipid concentrations, mean (HepG2 cell line; [10]): 99.8% | IC50 (HepG2 cell line; Homo sapiens, resazurin): > 800 µM

CCCCC/C=C\C/C=C\CCCCCCCCOC(CCCCCCCCCCCCCCC)O[Si](C)(C)OCCCCCCN(CCO)CCO (stereo not shown) [Example 43, (23Z,26Z)-3-(2-hydroxyethyl)-11,11-dimethyl-13-pentadecyl-10,12,14-trioxa-3-aza-11-siladotriaconta-23,26-dien-1-ol]
EE (%) [1, 2]: 83% | Viability (%) at different lipid concentrations, mean (HepG2 cell line; [3]): 100.9% | Viability (%) at different lipid concentrations, mean (HepG2 cell line; [4]): 98.7% | Viability (%) at different lipid concentrations, mean (HepG2 cell line; [5]): 102.2% | Viability (%) at different lipid concentrations, mean (HepG2 cell line; [6]): 111.9% | Viability (%) at different lipid concentrations, mean (HepG2 cell line; [7]): 114.9% | Viability (%) at different lipid concentrations, mean (HepG2 cell line; [8]): 108.9% | Viability (%) at different lipid concentrations, mean (HepG2 cell line; [9]): 92.1% | Viability (%) at different lipid concentrations, mean (HepG2 cell line; [10]): 89.8% | IC50 (HepG2 cell line; Homo sapiens, resazurin): > 800 µM

CCCCC/C=C\C/C=C\CCCCCCCCOC(CCCCCCC/C=C\C/C=C\CCCCC)O[Si](C)(C)OCCCCCCN1CCN(CCCCCCO[Si](C)(C)OC(CCCCCCC/C=C\C/C=C\CCCCC)OCCCCCCCC/C=C\C/C=C\CCCCC)CC1 (stereo not shown) [Example 70, 1,4-bis((20Z,23Z)-10-((8Z,11Z)-heptadeca-8,11-dien-1-yl)-8,8-dimethyl-7,9,11-trioxa-8-silanonacosa-20,23-dien-1-yl)piperazine]
EE (%) [1, 2]: 81%

CCCCCCCC/C=C\CCCCCCCC(OCC(CCCCCCCC)SCCCCCCCCCC)O[Si](C)(C)OCCCCCCN(CCO)CCO (stereo not shown) [Example 73, (Z)-13-(heptadec-8-en-1-yl)-3-(2-hydroxyethyl)-11,11-dimethyl-16-octyl-10,12,14-trioxa-17-thia-3-aza-11-silaheptacosan-1-ol]
EE (%) [1, 2]: 87%

CCCCC/C=C\C/C=C\CCCCCCCCO[Si](C)(C)OC(CCCCCCC/C=C\CCCCCCCC)OCCCN(C)C (stereo not shown) [Example 81, (17Z,20Z)-5-((Z)-heptadec-8-en-1-yl)-N,N,7,7-tetramethyl-4,6,8-trioxa-7-silahexacosa-17,20-dien-1-amine]
EE (%) [1]: 86%

CCCCC/C=C\C/C=C\CCCCCCCCOC(CCCCCCC/C=C\C/C=C\CCCCC)O[Si](C)(C)O[Si](C)(C)CCCCCCN(CCO)CCO (stereo not shown) [Example 82, (24Z,27Z)-14-((8Z,11Z)-heptadeca-8,11-dien-1-yl)-3-(2-hydroxyethyl)-10,10,12,12-tetramethyl-11,13,15-trioxa-3-aza-10,12-disilatritriaconta-24,27-dien-1-ol]
EE (%) [1, 2]: 80%
